Results published in US9328104B2, “Selective androgen receptor modulators” (Pfizer Inc., priority 2012, dated 2016).

Target: T1, full length human Androgen Receptor (AR) (Homo sapiens, UniProt P10275)
T1 construct: transiently transfected in T225 cm^2 flasks with a full length human Androgen Receptor (AR) cDNA; expressed in transfected cells; host or cells: CV-1 cells (ATCC CCL-70), transiently transfected with AR cDNA in pcDNA3 and ARE-luciferase in pGL3
T1 sequence (P10275 1-920): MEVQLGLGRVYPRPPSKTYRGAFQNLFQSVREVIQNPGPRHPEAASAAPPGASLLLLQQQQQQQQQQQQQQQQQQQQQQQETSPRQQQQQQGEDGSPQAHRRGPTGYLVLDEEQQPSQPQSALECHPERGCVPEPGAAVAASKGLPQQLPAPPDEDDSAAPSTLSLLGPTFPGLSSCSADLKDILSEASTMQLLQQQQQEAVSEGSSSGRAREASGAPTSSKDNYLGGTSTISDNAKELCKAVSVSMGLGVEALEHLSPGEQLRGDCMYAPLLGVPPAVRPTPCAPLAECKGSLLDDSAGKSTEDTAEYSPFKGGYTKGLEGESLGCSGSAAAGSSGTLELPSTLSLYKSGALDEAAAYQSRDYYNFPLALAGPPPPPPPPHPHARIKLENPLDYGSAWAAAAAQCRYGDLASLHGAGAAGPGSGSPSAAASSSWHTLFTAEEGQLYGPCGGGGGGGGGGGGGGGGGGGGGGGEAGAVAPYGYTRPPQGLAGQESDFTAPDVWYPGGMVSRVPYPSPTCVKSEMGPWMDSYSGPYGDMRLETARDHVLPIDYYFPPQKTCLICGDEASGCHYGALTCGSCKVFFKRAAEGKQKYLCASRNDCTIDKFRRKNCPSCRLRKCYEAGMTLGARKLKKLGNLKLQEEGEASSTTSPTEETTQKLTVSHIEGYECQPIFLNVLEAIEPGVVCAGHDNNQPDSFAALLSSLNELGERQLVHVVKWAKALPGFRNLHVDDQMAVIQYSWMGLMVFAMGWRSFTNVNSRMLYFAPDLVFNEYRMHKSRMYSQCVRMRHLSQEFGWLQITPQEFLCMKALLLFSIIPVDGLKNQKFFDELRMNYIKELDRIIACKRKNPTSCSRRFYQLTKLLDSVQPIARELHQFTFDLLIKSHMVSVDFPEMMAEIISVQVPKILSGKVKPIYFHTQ
Test: Androgen Receptor-Mediated Transcriptional Assay (ARE-luciferase reporter in transiently transfected CV-1 cells)
Format: cell-based
Conditions: not given
Method: Androgen Receptor-Mediated Transcriptional Assay Summary
CV-1 cells (American Tissue Culture Collection cat# CCL-70) were expanded in Growth Media and transiently transfected in T225 cm^2 flasks with a full length human Androgen Receptor (AR) cDNA in the pcDNA3 expression vector and a human Androgen Response Element (ARE)-luciferase cDNA in the pGL3 vector (both from Invitrogen). DNA (μg) and Lipofectamine (μl) at a ratio of 1:3 were incubated with the cells in a total volume of 55 mL Basal Media for 4 hours. Cells were harvested by trypsinization and frozen back (−150° C. cryomed) at a concentration of 4.3 million cells/mL.
On the day of the assay, frozen cells were thawed and re-suspended in Re-suspension Media and plated at 40,000 cells/well (in 100 μL volume) in 96 well white plates and were incubated for at least 4 h at 37° C., 5% CO2. After incubation, cells were treated with the compounds to be screened. 10 mM stocks of the compounds were serially diluted 1:10 in 100% DMSO followed by an additional 1:100 dilution in Assay Media. These dilution series were added to the cell plates resulting in a further 1:10 dilution and a final % DMSO of 0.1%. The vehicle control wells also contained this dilution of DMSO and the positive control wells contained […] (DHT) as an AR agonist at final concentration of 0.3 nM in 0.1% DMSO. Cells were incubated for 16-18 hours at 37° C. and 5% CO2. Then the culture media was removed from and the cells were lysed in 20 μL of cell lysis reagent for 5 minutes at room temperature. 50 μL of luciferase reagent was added to each well and luminescence, over 5 seconds, was measured.
EC50 (half maximal effective concentration) was calculated from concentration series plots which generated sigmoidal curves. Xlfit software was used to plot the best fit of the % effect vs concentration and to calculate the EC50.
Reagents and Materials used in the Androgen Receptor-Mediated Transcriptional Assay include the following: • Growth Media—DMEM/high glucose—10% FBS: 500 ml phenol red DMEM/high glucose (Gibco, Grand Island N.Y., cat #10569-010), 10% non heat-inactivated Fetal Bovine Serum (FBS) (Atlanta Biologicals, Norcross Ga., cat #S-12450), 1% Nonessential Amino Acids (Gibco, cat #11140-050), 1% Penicillin-Streptomycin (Gibco, cat #15140-122) • Basal Media—phenol red free DMEM/high glucose (Gibco, cat #31053-028)+1% Na Pyruvate (Gibco, cat #11360-070), 1% Nonessential Amino Acids (Gibco, cat #11140-050), 1% GlutaMAX-I (Gibco, cat #35050-061) • Re-suspension Media—basal media+1% Penicillin-Streptomycin (Gibco, cat #15140-122) • Assay Media—basal media+5% charcoal stripped FBS (HyClone, Logan Utah, Cat #SH30068)+1% Penicillin-Streptomycin (Gibco, cat #15140-122) • Cell Lysis Reagent—Promega, Cat #PAE1531 • Luciferase Reagent—Promega, Cat #PAE1483

Row | Compound | EC50
1 | CC[C@H]1CNS(=O)(=O)N1c1ccc2c(C#N)nccc2c1 (single isomer, unassigned) [Compound 2] | 18 nM
2 | C[C@H]1CNS(=O)(=O)N1c1ccc2c(C#N)cccc2c1 (single isomer, unassigned) [Compound 9] | 4 nM
3 | CCN1C[C@@H](C)CN(c2ccc3c(C#N)nccc3c2)S1(=O)=O (single isomer, unassigned) [Compound 16] | 262 nM
4 | C[C@H]([C@@H](O)C(F)(F)F)N(C)c1ccc2c(C#N)nccc2c1 (single isomer, unassigned) [Compound 26] | 0.1 nM
5 | C[C@H]([C@H](O)C(F)(F)F)N(C)c1ccc2c(C#N)nccc2c1 (single isomer, unassigned) [Compound 27] | 12.9 nM
6 | N#Cc1nccc2cc(N3CCCC[C@@H]3[C@@H](O)C(F)(F)F)ccc12 (single isomer, unassigned) [Compound 28] | 61.5 nM
7 | N#Cc1nccc2cc(N3CCCC[C@@H]3[C@H](O)C(F)(F)F)ccc12 (single isomer, unassigned) [Compound 29] | 0.02 nM
8 | N#Cc1nccc2cc(N3C(=O)CC[C@@H]3[C@H](O)C(F)(F)F)ccc12 (single isomer, unassigned) [Compound 32] | 84.3 nM
9 | N#Cc1nccc2cc(N3C(=O)CC[C@H]3[C@H](O)C(F)(F)F)ccc12 (single isomer, unassigned) [Compound 33] | 231 nM
10 | N#Cc1nccc2cc(N3CCC[C@@H]3[C@@H](O)C(F)(F)F)ccc12 (single isomer, unassigned) [Compound 34] | 0.1 nM
11 | N#Cc1nccc2cc(N3CCC[C@@H]3[C@H](O)C(F)(F)F)ccc12 (single isomer, unassigned) [Compound 35] | 7.4 nM
12 | N#Cc1nccc2cc(N3CCC[C@H]3[C@H](O)C(F)(F)F)ccc12 (single isomer, unassigned) [Compound 36] | 120 nM
13 | N#Cc1nccc2cc(N3CCC[C@H]3[C@@H](O)C(F)(F)F)ccc12 (single isomer, unassigned) [Compound 37] | 9.1 nM
14 | C[C@H]1CC[C@@H]([C@H](O)C(F)(F)F)N1c1ccc2c(C#N)nccc2c1 (single isomer, unassigned) [Compound 38] | 187 nM
15 | C[C@H](O)[C@H]1CC[C@@H](C)N1c1ccc2c(C#N)nccc2c1 (single isomer, unassigned) [Compound 39] | 37.3 nM
16 | C[C@H]1CNS(=O)(=O)N1c1ccc2c(C#N)nccc2c1 [Compound 1, 6-[(3S)-3-methyl-1,1-dioxido-1,2,5-thiadiazolidin-2-yl]isoquinoline-1-carbonitrile] | 15 nM
17 | CC1(C)CNS(=O)(=O)N(c2ccc3c(C#N)nccc3c2)C1 [Compound 13, 6-(4,4-dimethyl-1,1-dioxido-1,2,6-thiadiazinan-2-yl)isoquinoline-1-carbonitrile] | 0.7 nM
18 | N#Cc1nccc2cc(N3CC4(CC4)CNS3(=O)=O)ccc12 [Compound 14, 6-(6,6-dioxido-6-thia-5,7-diazaspiro[2.5]oct-5-yl)isoquinoline-1-carbonitrile] | 22 nM
19 | C[C@@H](Nc1ccc2c(C#N)nccc2c1)[C@H](O)C(F)(F)F [Compound 23, 6-{[(2R,3S)-4,4,4-trifluoro-3-hydroxybutan-2-yl]amino}isoquinoline-1-carbonitrile] | 5.1 nM

Same assay, conditions: CV-1 cells transfected with human AR and ARE-luciferase; 16-18 hours incubation; luminescence; read-out: EC50 Values for Compounds 1-22 from Androgen Receptor-Mediated Transcriptional Assay

Row | EC50 | Compound
20 | 16 nM | CC1CCN(c2ccc3c(C#N)nccc3c2)S(=O)(=O)N1 (racemic) [Compound 17, 6-(5-methyl-1,1-dioxido-1,2,6-thiadiazinan-2-yl)isoquinoline-1-carbonitrile]
21 | 79 nM | N#Cc1nccc2cc(N3[C@H](CC(F)(F)F)CNS3(=O)=O)ccc12 (single isomer, unassigned) [Compound 3]
22 | 22 nM | N#Cc1nccc2cc(N3[C@H](CCc4ccccc4)CNS3(=O)=O)ccc12 (single isomer, unassigned) [Compound 4]
23 | 10 nM | N#Cc1nccc2cc(N3[C@H](c4cccc(C(F)(F)F)c4)CNS3(=O)=O)ccc12 (single isomer, unassigned) [Compound 6]
24 | 22 nM | N#Cc1nccc2cc(N3[C@@H](c4ccc(Cl)cc4)CNS3(=O)=O)ccc12 (single isomer, unassigned) [Compound 7]
25 | 195 nM | Cc1cccc(C[C@@H]2CNS(=O)(=O)N(c3ccc4c(C#N)nccc4c3)C2)c1 (single isomer, unassigned) [Compound 15]
26 | 20 nM | Cc1ccc([C@H]2CNS(=O)(=O)N(c3ccc4c(C#N)nccc4c3)C2)cc1 (single isomer, unassigned) [Compound 18]
27 | 177 nM | Cc1ccc([C@@H]2CNS(=O)(=O)N(c3ccc4c(C#N)nccc4c3)C2)cc1 (single isomer, unassigned) [Compound 19]
28 | 271 nM | C[C@H]1CCS(=O)(=O)N1c1ccc2c(C#N)nccc2c1 [Compound 8, 6-[(3S)-3-methyl-1,1-dioxido-1,2-thiazolidin-2-yl]isoquinoline-1-carbonitrile]
29 | 0.4 nM | C[C@@H]1CNS(=O)(=O)N(c2ccc3c(C#N)nccc3c2)C1 [Compound 10, 6-[(4R)-4-methyl-1,1-dioxido-1,2,6-thiadiazinan-2-yl]isoquinoline-1-carbonitrile]
30 | 687 nM | C[C@H]1CNS(=O)(=O)N(c2ccc3c(C#N)nccc3c2)C1 [Compound 11, 6-[(4S)-4-methyl-1,1-dioxido-1,2,6-thiadiazinan-2-yl]isoquinoline-1-carbonitrile]
31 | 217 nM | N#Cc1nccc2cc(N3C[C@H](c4ccccc4)CNS3(=O)=O)ccc12 [Compound 12]

Row | Compound | EC50
32 | 6-[(4S)-4-(3-methylphenyl)-1,1-dioxido-1,2,6-thiadiazinan-2-yl]isoquinoline-1-carbonitrile [Compound 20] | 8 nM
33 | 6-[(4S)-4-ethyl-1,1-dioxido-1,2,6-thiadiazinan-2-yl]isoquinoline-1-carbonitrile [Compound 21] | 8 nM
34 | CCCC1CNS(=O)(=O)N(c2ccc3c(C#N)nccc3c2)C1 (racemic) [Compound 22, 6-(1,1-dioxido-4-propyl-1,2,6-thiadiazinan-2-yl)isoquinoline-1-carbonitrile] | 569 nM
35 | C[C@H]1CN(C)S(=O)(=O)N1c1ccc2c(C#N)nccc2c1 [Compound 5] | 5 nM

Same assay, conditions: CV-1 cells transfected with human AR and ARE-luciferase; 16-18 hours incubation; luminescence; read-out: EC50 Values for Compounds 23-39 from Androgen Receptor-Mediated Transcriptional Assay

Row | Compound | EC50
36 | 6-{(2R,5R)-2-[(1R)-1-hydroxyethyl]-5-methylpyrrolidin-1-yl}isoquinoline-1-carbonitrile [Compound 31] | 474 nM
